{"source": "paper PMC4251666", "about": "(ACS chemical biology, 2012)", "test_system": "cytosolic cysteine proteases", "assay": "Calpain activity assay in isolated renal cytosol", "type": "biochemical, New Zealand White rabbits", "settings": "10 μM, 50 μM SLLVY-AMC"}
{"smiles": "CCCC[C@@H](C=O)NC(=O)[C@H](CC(C)C)NC(=O)OCc1ccccc1", "note": "[Calpeptin]", "values": [{"measurement": "inhibition of activity in isolated cytosol", "value": "~ 50%"}]}
